Patent US20190031667A1, “PESTICIDALLY ACTIVE HETEROCYCLIC DERIVATIVES WITH SULPHUR CONTAINING SUBSTITUENTS” (SYNGENTA PARTICIPATIONS AG, priority 2016, published 2019)

Tests used:
Format in all cases: in vivo
[1] = test system: Spodoptera littoralis (Egyptian cotton leaf worm); assay: Example B1: Activity against Spodoptera littoralis, sprayed cotton leaf discs; conditions: foliar, 72 h, application rate 200 ppm, L1 larvae, 3 days after infestation
Protocol: Example B1: Activity against Spodoptera littoralis (Egyptian cotton leaf worm) Cotton leaf discs were placed onto agar in 24-well microtiter plates and sprayed with aqueous test solutions prepared from 10′000 ppm DMSO stock solutions. After drying the leaf discs were infested with five L1 larvae. The samples were assessed for mortality, anti-feeding effect, and growth inhibition in comparison to untreated samples 3 days after infestation. Control of Spodoptera littoralis by a test sample is given when at least one of the categories mortality, anti-feedant effect, and growth inhibition is higher than the untreated sample.

[2] = test system: Plutella xylostella (Diamond Back Moth); assay: Example B3: Activity against Plutella xylostella, artificial diet; conditions: 120 h, application rate 200 ppm, L2 larvae, 5 days after infestation, read-out: effect in at least one of the two categories (mortality or growth inhibition)
Protocol: Example B3: Activity Against Plutella xylostella (Diamond Back Moth)
(§1) 24-well microtiter plates with artificial diet were treated with aqueous test solutions prepared from 10′000 ppm DMSO stock solutions by pipetting. After drying, the plates were infested with L2 larvae (10 to 15 per well). The samples were assessed for mortality and growth inhibition in comparison to untreated samples 5 days after infestation.

[3] = test system: Diabrotica Balteata (Corn Root Worm); assay: Example B4: Activity against Diabrotica balteata, sprayed maize sprouts; conditions: 96 h, application rate 200 ppm, L2 larvae, 4 days after infestation, read-out: effect in at least one of the two categories (mortality or growth inhibition)
Protocol: Example B4: Activity Against Diabrotica Balteata (Corn Root Worm)
as §1, with “Maize sprouts, placed onto an agar layer in 24-well” for “24-well”, “plates” for “plates with artificial diet”, “spraying.” for “pipetting.”, “(6” for “(10”, “10” for “15”, “4” for “5”

[4] = test system: Myzus persicae (Green Peach Aphid); assay: Example B5: Activity against Myzus persicae, sprayed sunflower leaf discs; conditions: foliar, 144 h, application rate 200 ppm, mixed-age aphids, 6 days after infestation
Protocol: Example B5: Activity Against Myzus persicae (Green Peach Aphid)
Sunflower leaf discs were placed onto agar in a 24-well microtiter plate and sprayed with aqueous test solutions prepared from 10′000 ppm DMSO stock solutions. After drying, the leaf discs were infested with an aphid population of mixed ages. The samples were assessed for mortality 6 days after infestation.

[5] = test system: Bemisia tabaci (Cotton White Fly); assay: Example B7: Activity against Bemisia tabaci, sprayed cotton leaf discs; conditions: foliar, 144 h, application rate 200 ppm, adult white flies, 6 days after incubation
Protocol: Example B7: Activity Against Bemisia tabaci (Cotton White Fly)
Cotton leaf discs were placed onto agar in 24-well microtiter plates and sprayed with aqueous test solutions prepared from 10′000 ppm DMSO stock solutions. After drying the leaf discs were infested with adult white flies. The samples were checked for mortality 6 days after incubation.

[6] = test system: Euschistus heros (Neotropical Brown Stink Bug); assay: Example B8: Activity against Euschistus heros, sprayed soybean leaves; conditions: 120 h, application rate 200 ppm, N2 nymphs, 5 days after infestation, read-out: effect in at least one of the two categories (mortality or growth inhibition)
Protocol: Example B8: Activity Against Euschistus heros (Neotropical Brown Stink Bug)
Soybean leaves on agar in 24-well microtiter plates were sprayed with aqueous test solutions prepared from 10′000 ppm DMSO stock solutions. After drying the leaves were infested with N2 nymphs. The samples were assessed for mortality and growth inhibition in comparison to untreated samples 5 days after infestation.

[7] = test system: Spodoptera littoralis (Egyptian cotton leaf worm); assay: Example B2: Activity against Spodoptera littoralis, systemic via lettuce roots in agar; conditions: 144 h, test rate 12.5 ppm, uptake by lettuce roots from agar, 6 days after infestation, read-out: effect in at least one of the three categories (mortality, anti-feeding, or growth inhibition)
Description: Example B2: Activity against Spodoptera littoralis (Egyptian cotton leaf worm) Test compounds were applied by pipette from 10′000 ppm DMSO stock solutions into 24-well plates and mixed with agar. Lettuce seeds were placed onto the agar and the multi well plate was closed by another plate which contained also agar. After 7 days the compound was absorbed by the roots and the lettuce grew into the lid plate. The lettuce leaves were then cut off into the lid plate. Spodoptera eggs were pipetted through a plastic stencil onto a humid gel blotting paper and the lid plate was closed with it. The samples were assessed for mortality, anti-feedant effect and growth inhibition in comparison to untreated samples 6 days after infestation.

[8] = test system: Myzus persicae (Green Peach Aphid); assay: Example B6: Activity against Myzus persicae, systemic via pea seedling roots; conditions: 144 h, test rate 24 ppm, roots of infested pea seedlings in test solution, 6 days
Protocol: Example B6: Activity Against Myzus persicae (Green Peach Aphid)
Roots of pea seedlings infested with an aphid population of mixed ages were placed directly in the aqueous test solutions prepared from 10′000 DMSO stock solutions. The samples were assessed for mortality 6 days after placing seedlings in test solutions.

CCS(=O)(=O)c1ccc(-n2cnc(Cl)n2)nc1-n1cc2cnc(C(F)(F)F)cc2n1 [Compound P25]
≥ 80%: percent control (mortality, anti-feedant effect or growth inhibition) at 200 ppm [1] | percent effect (mortality or growth inhibition) at 200 ppm [2] | percent effect (mortality or growth inhibition) at 200 ppm [3] | mortality at 200 ppm [4] | mortality at 200 ppm [5] | percent effect (mortality or growth inhibition) at 200 ppm [6]

CCS(=O)(=O)c1ccc(N)nc1-n1cc2cnc(C(F)(F)F)cc2n1 [Compound P16, 5-ethylsulfonyl-6-[6-(trifluoromethyl)pyrazolo[4,3-c]pyridin-2-yl]pyridin-2-amine]
≥ 80%: percent control (mortality, anti-feedant effect or growth inhibition) at 200 ppm [1] | percent effect (mortality, anti-feeding or growth inhibition) at 12.5 ppm [7] | percent effect (mortality or growth inhibition) at 200 ppm [2] | percent effect (mortality or growth inhibition) at 200 ppm [3] | mortality at 200 ppm [4] | mortality at 24 ppm [8] | percent effect (mortality or growth inhibition) at 200 ppm [6]

CCS(=O)(=O)c1ccc(-n2cccn2)nc1-n1nc2cc(C(F)(F)F)ncc2c1Cl [Compound P11]
≥ 80%: mortality at 200 ppm [5]

CCS(=O)(=O)c1ccc(NC)nc1-n1cc2cnc(C(F)(F)F)cc2n1 [Compound P15]
≥ 80%: percent control (mortality, anti-feedant effect or growth inhibition) at 200 ppm [1] | percent effect (mortality, anti-feeding or growth inhibition) at 12.5 ppm [7] | percent effect (mortality or growth inhibition) at 200 ppm [2] | percent effect (mortality or growth inhibition) at 200 ppm [3] | mortality at 200 ppm [4] | percent effect (mortality or growth inhibition) at 200 ppm [6]
